This passage reports IC50 results from ChEMBL document CHEMBL1142268, “Histone deacetylase inhibitors: from bench to clinic” (J Med Chem, 2008).

One assay addresses Histone deacetylase. Kind of assay: Inhibition of HDAC from human K562 cells. It is filed as cell-based.
Settings: not given
A word on the IC50: it is the midpoint of a concentration-inhibition curve. In turn, `O=C(O)C(=O)CCCCCCOc1ccc(-c2ccccc2)cc1` registered an IC50 of 3700 nM. Same read-out and setting: as for `O=C(CCCCCCc1nc(-c2ccc(OC(F)(F)F)cc2)cs1)NO`, the figure is 74 nM; as for `CN(C)C(=O)C(=O)CCCCCCOc1ccc(-c2ccccc2)cc1`, above 5000 nM; as for `O=C(CCCCCCc1cnc(-c2ccccc2)o1)NO`, 13 nM.

`O=C(CCCCCCc1cnc(-c2ccc(F)cc2)o1)NO` came in with an IC50 of 23 nM. In turn, `COC(=O)C(=O)CCCCCCOc1ccc(-c2ccccc2)cc1` gave an IC50 of 62 nM.

Compound `COC(=O)C(=O)CCCCCCCOc1ccc(-c2ccccc2)cc1` had an IC50 of 109 nM.

Take `COC(=O)C(=O)CCCCCOc1ccc(-c2ccccc2)cc1`: the IC50 turned out to be 82 nM. In the case of `C[C@@H]1C(=O)N[C@H](C)C(=O)N[C@H](C)C(=O)N[C@H](Cc2ccccc2)C(=O)N[C@@H]1C/C=C\CCC(N)=O` [AZUMAMIDE D], the IC50 was 1300 nM.

Consider `CCNC(=O)C(=O)CCCCCCOc1ccc(-c2ccccc2)cc1`, for which the IC50 was 4900 nM. `NC(=O)C(=O)CCCCCCOc1ccc(-c2ccccc2)cc1` had an IC50 above 50000 nM. The same measure, in the same setting: as for `CN(C)CCNC(=O)C(=O)CCCCCCOc1ccc(-c2ccccc2)cc1`, the figure is above 50000 nM. Still for that read-out and setting: to `CC(C)[C@H]1NC(=O)[C@@H](C)[C@@H](C/C=C\CCC(N)=O)NC(=O)[C@@H](Cc2ccccc2)NC(=O)[C@@H](C)NC1=O` [AZUMAMIDE A] belongs 45 nM; to `C1=C\CCCCCC[n+]2cccc(c2)CCCCCCCCCCCC[n+]2cccc(c2)CCCCCC/1`, 27000 nM; to `O=C(O)CNC(=O)C(=O)CCCCCCOc1ccc(-c2ccccc2)cc1`, above 50000 nM.

The next assay concerns MKN-45. Briefly: Antiproliferative activity against human MKN45 cells. The class given is functional, cell-based.
Settings: not given
The compound `COc1ccccc1NC(=O)Cn1ccc(-c2ccc(C(=O)NO)s2)n1` gave an IC50 of 230 nM. Regarding `O=C(Cn1ccc(-c2ccc(C(=O)NO)s2)n1)Nc1cccc2cccnc12`, the IC50 stood at 200 nM. On the same count and under the same terms, as for `COc1ccc(CNCCn2ccc(-c3ccc(C(=O)NO)s3)n2)cc1OC`, the figure is 4500 nM. The compound `O=C(NO)c1ccc(-c2ccn(Cc3ccccc3)n2)s1` registered an IC50 of 4540 nM.

In turn, `O=C(NO)c1ccc(-c2ccn(CCNCc3ccc(-n4ccnc4)cc3)n2)s1` came in with an IC50 of 560 nM. With `O=C(NO)c1ccc(-c2ccn(CCNCc3ccc(-c4ccccn4)cc3)n2)s1`, the IC50 worked out at 120 nM. Same read-out and setting: as for `O=C(NO)c1ccc(-c2ccn(CCc3ccccc3)n2)s1`, the figure is 2910 nM; as for `O=C(NO)c1ccc(-c2ccn(CCCc3ccccc3)n2)s1`, 2190 nM; as for `O=C(Cn1ccc(-c2ccc(C(=O)NO)s2)n1)Nc1ccccc1`, 840 nM.

The subject of another assay is HCT-116. Briefly: Inhibition of human HCT116 cells. The class given is functional, cell-based.
Settings: not given
For `Nc1ccccc1NC(=O)c1ccc(/C=C/C(=O)NCCc2c[nH]c3ccccc23)cc1`, it took 300 nM to reach half-maximal inhibition (IC50). As to `COc1ccc(CNc2ccc(/C=C/C(=O)Nc3ccccc3N)cc2)cc1`, the IC50 turned out to be 37000 nM. Same read-out and setting: as for `COc1ccc(CNc2ccc(C(=O)Nc3ccccc3N)cc2)cc1OC`, the figure is 600 nM. The same measure, in the same setting: as for `Nc1ccccc1NC(=O)c1ccc(/C=C/CNc2nccc(-c3cccnc3)n2)cc1`, the figure is 200 nM. Same read-out and setting: to `Nc1ccccc1NC(=O)/C=C/c1ccc(NCc2ccccc2)nc1` belongs 1000 nM; to `COc1cc(NCc2ccc(/C=C/C(=O)Nc3ccccc3N)cn2)cc(OC)c1OC`, 3000 nM; to `Nc1ccccc1NC(=O)c1ccc(/C=C/C(=O)NCc2cccnc2)cc1`, 70 nM.

`Nc1ccccc1NC(=O)CCCCCCNC(=O)c1cccc(-c2ccccc2)c1` yielded an IC50 of 12000 nM. The same measure, in the same setting: as for `COc1ccc(CNc2ccc(C(=O)Nc3ccccc3N)cn2)cc1`, the figure is 500 nM; as for `COc1ccc(CCNc2ccc(C(=O)Nc3ccccc3N)cn2)cc1`, 800 nM; as for `COc1cc(NC/C=C/c2ccc(C(=O)Nc3ccccc3N)cc2)cc(OC)c1OC`, 100 nM. Compound `COc1ccc(CNc2ccc(/C=C/C(=O)Nc3ccccc3N)cn2)cc1` came in with an IC50 of 3000 nM. Regarding `Nc1ccccc1NC(=O)CCCCCCNC(=O)c1ccc(-c2ccccc2)cc1`, the IC50 was found to be 7000 nM.

In the case of `COc1cc(CNc2ccc(/C=C/C(=O)Nc3ccccc3N)cn2)cc(OC)c1OC`, half-maximal inhibition (IC50) was put at 2000 nM. On the same count and under the same terms, as for `Nc1ccccc1NC(=O)c1ccc(CSc2nc3ccccc3[nH]2)cc1`, the figure is 320 nM; as for `COc1ccc(NCc2ccc(/C=C/C(=O)Nc3ccccc3N)cc2)cc1`, 12000 nM.

For a further assay, the target named is Histone deacetylase. Kind of assay: Inhibition of HDAC from human HeLa cells. The class given is cell-based.
Settings: not given
Compound `O=C(NO)c1ccc(-c2ccccn2)s1` displayed a half-maximal inhibitory concentration (IC50) of 243 nM. On the same count and under the same terms, as for `CSCCCCCCC(=O)Nc1ccccc1`, the figure is above 100000 nM. The same measure, in the same setting: to `O=C(NO)c1ccc(-c2ccncc2)s1` belongs 1260 nM; to `O=C(NO)c1ccc(-c2cccnc2)s1`, 1130 nM.

Staying with this assay, now noted: read-out: IC50.
As to `COc1ccc(S(=O)(=O)Nc2cccc(/C=C/C(=O)NO)c2)cc1OC`, the IC50 amounted to 137 nM. For the compound `Cc1ccc(S(=O)(=O)Nc2cccc(/C=C/C(=O)NO)c2)cc1`, the IC50 amounted to 123 nM. Consider `O=C(CCCCCNC(=O)Nc1cccc(-c2nc3ccc(F)cc3o2)c1)NO`, for which the IC50 worked out at 9 nM.

Turning to `O=C(/C=C/c1cccc(NS(=O)(=O)c2ccc(-c3ccccc3)cc2)c1)NO`, the half-maximal inhibitory concentration (IC50) is 106 nM. Same read-out and setting: as for `COc1ccc(-c2nc3cc(F)ccc3o2)cc1NC(=O)NCCCCCC(=O)NO`, the figure is 15 nM; as for `COc1ccc(NS(=O)(=O)c2cccc(/C=C/C(=O)NO)c2)cc1OC`, 23 nM; as for `COc1ccc(-c2nc3ccccc3o2)cc1NC(=O)NCCCCCC(=O)NO`, 12 nM. On the same count and under the same terms, to `O=C(/C=C/c1cccc(S(=O)(=O)NCc2ccccc2)c1)NO` belongs 34 nM. For the compound `COc1ccc(-c2nc3ccc(F)cc3o2)cc1NC(=O)NCCCCCC(=O)NO`, the IC50 stood at 18 nM.

With `O=C(/C=C/c1cccc(S(=O)(=O)Nc2ccc(-c3ccccc3)cc2)c1)NO`, the IC50 is listed as 54 nM. As to `COc1ccc2oc(-c3cccc(NC(=O)NCCCCCC(=O)NO)c3)nc2c1`, the IC50 stood at 12 nM. The same measure, in the same setting: to `COc1ccc(-c2nc3cc(-c4ccccc4)ccc3o2)cc1NC(=O)NCCCCCC(=O)NO` belongs 400 nM; to `O=C(CCCCCNC(=O)Nc1cccc(-c2nc3cc(C(F)(F)F)ccc3o2)c1)NO`, 19 nM; to `COc1ccc(-c2nc3cc(Cl)ccc3o2)cc1NC(=O)NCCCCCC(=O)NO`, 146 nM. On the same count and under the same terms, to `O=C(/C=C/c1ccc(NS(=O)(=O)c2ccc(-c3ccccc3)cc2)cc1)NO` belongs 30 nM; to `CN(c1ccccc1)S(=O)(=O)c1cccc(/C=C/C(=O)NO)c1`, 476 nM; to `O=C(/C=C/c1cccc(NS(=O)(=O)c2ccccc2)c1)NO`, 188 nM.

`O=C(/C=C/c1ccc(S(=O)(=O)Nc2ccc(-c3ccccc3)cc2)cc1)NO`: the half-maximal inhibitory concentration (IC50) was determined as 66 nM. Regarding `O=C(CCCCCNC(=O)Nc1cccc(-c2nc3ccccc3o2)c1)NO`, the IC50 was found to be 8 nM. In the case of `CC(=O)SCCCCCCC(=O)Nc1ccccc1`, the IC50 came to 7100 nM. The same measure, in the same setting: as for `O=C(/C=C/c1ccc(S(=O)(=O)Nc2ccccc2)cc1)NO`, the figure is 29 nM. Take `O=C(CCCCS)Nc1ccccc1`: the IC50 was 6200 nM.

Take `O=C(CCCCCNC(=O)Nc1cccc(-c2nc3cc(F)ccc3o2)c1)NO`: the IC50 is 8 nM. With `Cc1ccc(NS(=O)(=O)c2cccc(/C=C/C(=O)NO)c2)cc1`, the IC50 was 18 nM. For `COc1ccc(-c2nc3cc(Cl)cc(Cl)c3o2)cc1NC(=O)NCCCCCC(=O)NO`, the IC50 is 128 nM.
